# Results published in PubChem BioAssay (NCI).
#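 Cells were grown in 96-well plates and exposed to each compound for 48 hours at five concentrations; endpoints were interpolated linearly between bracketing concentrations, or set to the highest concentration if not reached. At the GI50, growth is halved. TGI: total growth inhibition.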
# Columns and labels:
# Experiment in all cases: inhibition of tumour cell growth, NCI panel, 48 h
# MALME-3M melanoma = tested on: MALME-3M melanoma
# U251 CNS = tested on: U251 CNS
# MCF7 breast = tested on: MCF7 breast
# A498 renal = tested on: A498 renal
# NCI-H460 lung = tested on: NCI-H460 lung
# LOX IMVI melanoma = tested on: LOX IMVI melanoma
# NCI-H522 lung = tested on: NCI-H522 lung
# HCT-116 colon = tested on: HCT-116 colon
# SF-295 CNS = tested on: SF-295 CNS
# NCI-H226 lung = tested on: NCI-H226 lung
# MDA-MB-468 breast = tested on: MDA-MB-468 breast
# CAKI-1 renal = tested on: CAKI-1 renal
# HCT-15 colon = tested on: HCT-15 colon
# SF-268 CNS = tested on: SF-268 CNS
# OVCAR-3 ovarian = tested on: OVCAR-3 ovarian
# SW-620 colon = tested on: SW-620 colon
# ACHN renal = tested on: ACHN renal
# OVCAR-8 ovarian = tested on: OVCAR-8 ovarian
# HOP-92 NSCLC = tested on: HOP-92 NSCLC
# NCI/ADR-RES ovarian = tested on: NCI/ADR-RES ovarian
# RXF 393 renal = tested on: RXF 393 renal
# RPMI-8226 leukemia = tested on: RPMI-8226 leukemia
# SNB-75 CNS = tested on: SNB-75 CNS
# OVCAR-4 ovarian = tested on: OVCAR-4 ovarian
# HS 578T breast = tested on: HS 578T breast
# HT29 colon = tested on: HT29 colon
# NCI-H23 lung = tested on: NCI-H23 lung
# EKVX NSCLC = tested on: EKVX NSCLC
# T-47D breast = tested on: T-47D breast
# SN12C renal = tested on: SN12C renal
# SK-MEL-28 melanoma = tested on: SK-MEL-28 melanoma
# HOP-62 NSCLC = tested on: HOP-62 NSCLC
# OVCAR-5 ovarian = tested on: OVCAR-5 ovarian
# SK-OV-3 ovarian = tested on: SK-OV-3 ovarian
# KM12 colon = tested on: KM12 colon
# IGROV1 ovarian = tested on: IGROV1 ovarian
# SF-539 CNS = tested on: SF-539 CNS
# SNB-19 CNS = tested on: SNB-19 CNS
# UACC-257 melanoma = tested on: UACC-257 melanoma
# HCC-2998 colon = tested on: HCC-2998 colon
# K-562 leukemia = tested on: K-562 leukemia
# DU-145 prostate = tested on: DU-145 prostate
# TK-10 renal = tested on: TK-10 renal
# HL-60(TB) leukemia = tested on: HL-60(TB) leukemia
# SK-MEL-5 melanoma = tested on: SK-MEL-5 melanoma
# SK-MEL-2 melanoma = tested on: SK-MEL-2 melanoma
# PC-3 prostate = tested on: PC-3 prostate
# 786-0 renal = tested on: 786-0 renal
# MOLT-4 leukemia = tested on: MOLT-4 leukemia
# CCRF-CEM leukemia = tested on: CCRF-CEM leukemia
# COLO 205 colon = tested on: COLO 205 colon
# M14 melanoma = tested on: M14 melanoma
# BT-549 breast = tested on: BT-549 breast
# UACC-62 melanoma = tested on: UACC-62 melanoma
# A549 NSCLC = tested on: A549 NSCLC
# MDA-MB-435 = tested on: MDA-MB-435
# UO-31 renal = tested on: UO-31 renal
# SR leukemia = tested on: SR leukemia
structure (smiles),measurement,setting,value
CCCCCCCCCCCCCCCCCCCC(=O)NCCc1c[nH]c2ccc(OC(=O)CCCC(=O)OCCOOCCOOCCOOCCOOCCOOCCOOCCOOCCOOCCOOCCOOCCOOCCOC)cc12,GI50,MALME-3M melanoma,54.3 µM
same,TGI,MALME-3M melanoma,> 100 µM
same,GI50,U251 CNS,17.1 µM
same,TGI,U251 CNS,33.9 µM
same,GI50,MCF7 breast,24.1 µM
same,TGI,MCF7 breast,> 100 µM
same,GI50,A498 renal,> 100 µM
same,TGI,A498 renal,> 100 µM
same,GI50,NCI-H460 lung,27.9 µM
same,TGI,NCI-H460 lung,> 100 µM
same,GI50,LOX IMVI melanoma,13.4 µM
same,TGI,LOX IMVI melanoma,33.1 µM
same,GI50,NCI-H522 lung,2700 nM
same,TGI,NCI-H522 lung,9.36 µM
same,GI50,HCT-116 colon,30.7 µM
same,TGI,HCT-116 colon,> 100 µM
same,GI50,SF-295 CNS,15.7 µM
same,TGI,SF-295 CNS,31.6 µM
same,GI50,NCI-H226 lung,14 µM
same,TGI,NCI-H226 lung,33.1 µM
same,GI50,MDA-MB-468 breast,29.6 µM
same,TGI,MDA-MB-468 breast,> 100 µM
same,GI50,CAKI-1 renal,34 µM
same,TGI,CAKI-1 renal,> 100 µM
same,GI50,HCT-15 colon,31 µM
same,TGI,HCT-15 colon,> 100 µM
same,GI50,SF-268 CNS,15.2 µM
same,TGI,SF-268 CNS,47.1 µM
same,GI50,OVCAR-3 ovarian,10.7 µM
same,TGI,OVCAR-3 ovarian,25.6 µM
same,GI50,SW-620 colon,35.5 µM
same,TGI,SW-620 colon,> 100 µM
same,GI50,ACHN renal,25.2 µM
same,TGI,ACHN renal,> 100 µM
same,GI50,OVCAR-8 ovarian,16 µM
same,TGI,OVCAR-8 ovarian,38.5 µM
same,GI50,HOP-92 NSCLC,18.6 µM
same,TGI,HOP-92 NSCLC,44.8 µM
same,GI50,NCI/ADR-RES ovarian,21.8 µM
same,TGI,NCI/ADR-RES ovarian,72 µM
same,GI50,RXF 393 renal,18.9 µM
same,TGI,RXF 393 renal,39.2 µM
same,GI50,RPMI-8226 leukemia,3220 nM
same,TGI,RPMI-8226 leukemia,26.5 µM
same,GI50,SNB-75 CNS,> 100 µM
same,TGI,SNB-75 CNS,> 100 µM
same,GI50,OVCAR-4 ovarian,20.8 µM
same,TGI,OVCAR-4 ovarian,95.1 µM
same,GI50,HS 578T breast,38.7 µM
same,TGI,HS 578T breast,> 100 µM
same,GI50,HT29 colon,32.9 µM
same,TGI,HT29 colon,> 100 µM
same,GI50,NCI-H23 lung,18.9 µM
same,TGI,NCI-H23 lung,42.4 µM
same,GI50,EKVX NSCLC,26.9 µM
same,TGI,EKVX NSCLC,> 100 µM
same,GI50,T-47D breast,14.9 µM
same,TGI,T-47D breast,> 100 µM
same,GI50,SN12C renal,12.6 µM
same,TGI,SN12C renal,33.2 µM
same,GI50,SK-MEL-28 melanoma,> 100000 nM
same,TGI,SK-MEL-28 melanoma,> 100000 nM
same,GI50,HOP-62 NSCLC,26.7 µM
same,TGI,HOP-62 NSCLC,> 100 µM
same,GI50,OVCAR-5 ovarian,68 µM
same,TGI,OVCAR-5 ovarian,> 100 µM
same,GI50,SK-OV-3 ovarian,> 100000 nM
same,TGI,SK-OV-3 ovarian,> 100 µM
same,GI50,KM12 colon,17.5 µM
same,TGI,KM12 colon,52.6 µM
same,GI50,IGROV1 ovarian,16.2 µM
same,TGI,IGROV1 ovarian,38.9 µM
same,GI50,SF-539 CNS,11 µM
same,TGI,SF-539 CNS,25.3 µM
same,GI50,SNB-19 CNS,22.4 µM
same,TGI,SNB-19 CNS,62.8 µM
same,GI50,UACC-257 melanoma,> 100000 nM
same,TGI,UACC-257 melanoma,> 100 µM
same,GI50,HCC-2998 colon,44.7 µM
same,TGI,HCC-2998 colon,> 100 µM
same,GI50,K-562 leukemia,5.59 µM
same,TGI,K-562 leukemia,26.4 µM
same,GI50,DU-145 prostate,24.8 µM
same,TGI,DU-145 prostate,> 100 µM
same,GI50,TK-10 renal,> 100000 nM
same,TGI,TK-10 renal,> 100 µM
same,GI50,HL-60(TB) leukemia,2530 nM
same,TGI,HL-60(TB) leukemia,10.3 µM
same,GI50,SK-MEL-5 melanoma,40.8 µM
same,TGI,SK-MEL-5 melanoma,> 100 µM
same,GI50,SK-MEL-2 melanoma,26.1 µM
same,TGI,SK-MEL-2 melanoma,> 100 µM
same,GI50,PC-3 prostate,11.6 µM
same,TGI,PC-3 prostate,49.5 µM
same,GI50,786-0 renal,> 100000 nM
same,TGI,786-0 renal,> 100000 nM
same,GI50,MOLT-4 leukemia,4.61 µM
same,TGI,MOLT-4 leukemia,23 µM
same,GI50,CCRF-CEM leukemia,769 nM
same,TGI,CCRF-CEM leukemia,8.4 µM
same,GI50,COLO 205 colon,> 100000 nM
same,TGI,COLO 205 colon,> 100 µM
same,GI50,M14 melanoma,29 µM
same,TGI,M14 melanoma,> 100 µM
same,GI50,BT-549 breast,4.15 µM
same,TGI,BT-549 breast,14 µM
same,GI50,UACC-62 melanoma,34.8 µM
same,TGI,UACC-62 melanoma,> 100 µM
same,GI50,A549 NSCLC,21.7 µM
same,TGI,A549 NSCLC,62.3 µM
same,GI50,MDA-MB-435,41.2 µM
same,TGI,MDA-MB-435,> 100 µM
Cn1cc(-c2cc(N)n3nc(-c4c[nH]c5ccc(Cl)cc45)cc3n2)c2cccnc21,GI50,MALME-3M melanoma,1.62 µM
same,TGI,MALME-3M melanoma,3.04 µM
same,GI50,MCF7 breast,1.77 µM
same,TGI,MCF7 breast,3.93 µM
same,GI50,A498 renal,20.1 µM
same,TGI,A498 renal,37.7 µM
same,GI50,UO-31 renal,1550 nM
same,TGI,UO-31 renal,3.05 µM
same,GI50,HCT-116 colon,1.81 µM
same,TGI,HCT-116 colon,3.29 µM
same,GI50,SF-295 CNS,1.65 µM
same,TGI,SF-295 CNS,3.13 µM
same,GI50,MDA-MB-468 breast,1.56 µM
same,TGI,MDA-MB-468 breast,3.25 µM
same,GI50,CAKI-1 renal,1.64 µM
same,TGI,CAKI-1 renal,3.5 µM
same,GI50,HCT-15 colon,1.79 µM
same,TGI,HCT-15 colon,3.94 µM
same,GI50,SF-268 CNS,2.06 µM
same,TGI,SF-268 CNS,4.82 µM
same,GI50,OVCAR-3 ovarian,1.68 µM
same,TGI,OVCAR-3 ovarian,3.27 µM
same,GI50,ACHN renal,1.72 µM
same,TGI,ACHN renal,3.17 µM
same,GI50,RXF 393 renal,1.49 µM
same,TGI,RXF 393 renal,2.9 µM
same,GI50,RPMI-8226 leukemia,2600 nM
same,TGI,RPMI-8226 leukemia,> 100 µM
same,GI50,OVCAR-4 ovarian,1.79 µM
same,TGI,OVCAR-4 ovarian,3.76 µM
same,GI50,HS 578T breast,1.97 µM
same,TGI,HS 578T breast,5.08 µM
same,GI50,NCI-H23 lung,1.71 µM
same,TGI,NCI-H23 lung,3.39 µM
same,GI50,EKVX NSCLC,1.85 µM
same,TGI,EKVX NSCLC,4.53 µM
same,GI50,SN12C renal,1.52 µM
same,TGI,SN12C renal,3.13 µM
same,GI50,SK-MEL-28 melanoma,1530 nM
same,TGI,SK-MEL-28 melanoma,2900 nM
same,GI50,OVCAR-5 ovarian,1.73 µM
same,TGI,OVCAR-5 ovarian,3.62 µM
same,GI50,SK-OV-3 ovarian,2030 nM
same,TGI,SK-OV-3 ovarian,4.76 µM
same,GI50,KM12 colon,2.03 µM
same,TGI,KM12 colon,4.18 µM
same,GI50,SR leukemia,2300 nM
same,TGI,SR leukemia,> 100 µM
same,GI50,SF-539 CNS,1.62 µM
same,TGI,SF-539 CNS,3.01 µM
same,GI50,SNB-19 CNS,2.6 µM
same,TGI,SNB-19 CNS,6.74 µM
same,GI50,UACC-257 melanoma,1900 nM
same,TGI,UACC-257 melanoma,3.87 µM
same,GI50,HCC-2998 colon,1.76 µM
same,TGI,HCC-2998 colon,3.2 µM
same,GI50,K-562 leukemia,2.76 µM
same,TGI,K-562 leukemia,> 100 µM
same,GI50,TK-10 renal,2020 nM
same,TGI,TK-10 renal,4.64 µM
same,GI50,HL-60(TB) leukemia,1800 nM
same,TGI,HL-60(TB) leukemia,5.47 µM
same,GI50,SK-MEL-5 melanoma,1.65 µM
same,TGI,SK-MEL-5 melanoma,3.06 µM
same,GI50,SK-MEL-2 melanoma,12.3 µM
same,TGI,SK-MEL-2 melanoma,24.7 µM
same,GI50,PC-3 prostate,2.54 µM
same,TGI,PC-3 prostate,8.68 µM
same,GI50,786-0 renal,1560 nM
same,TGI,786-0 renal,2910 nM
same,GI50,CCRF-CEM leukemia,2510 nM
same,TGI,CCRF-CEM leukemia,9.05 µM
same,GI50,COLO 205 colon,1750 nM
same,TGI,COLO 205 colon,3.27 µM
same,GI50,M14 melanoma,1.81 µM
same,TGI,M14 melanoma,3.42 µM
same,GI50,UACC-62 melanoma,1.63 µM
same,TGI,UACC-62 melanoma,3.07 µM
